Measured values from ChEMBL document CHEMBL4665852, “Hydroxylated Ethacrylic and Tiglic Acid Derivatives from the Stems and Branches of Enkianthus chinensis and Their Potential Anti-inflammatory Activities” (J Nat Prod, 2020).

Tests used:
Peritoneal macrophage [1] = assay: Cytotoxicity against C57BL/6J mouse Peritoneal macrophages assessed as reduction in cell growth incubated for 1 hr; assay type: cell-based
Peritoneal macrophage [2] = assay: Antiinflammatory activity in C57BL/6J mouse peritoneal macrophages assessed as inhibition of LPS-induced NO production at 10 uM preincubated for 1 hrs followed by LPS-stimulation and measured after 24 hrs by Griess reagent-based assay relative to control; assay type: functional; details: time 25 hrs
Peritoneal macrophage [3] = assay: Antiinflammatory activity in C57BL/6J mouse peritoneal macrophages assessed as inhibition of LPS-induced NO production preincubated for 1 hrs followed by LPS-stimulation and measured after 24 hrs by Griess reagent-based assay relative to control; assay type: functional, cell-based

SMILES	Activity (Peritoneal macrophage [1])	inhibition at 10 µM (Peritoneal macrophage [2]) [%]	IC50 (Peritoneal macrophage [3]) [µM]
CC[C@](O)(C(=O)OC/C(=C\CO)C(=O)OC)[C@@H](C)O	Non-Toxic	64.3	2.9
C/C=C(\CO)C(=O)OC/C(=C\CO)C(=O)OC	Non-Toxic	84.9	1.2
